# Tests used:
# [1] = Cytotoxicity against monkey GMK cells at 25 ug/mL after 24 hrs by MTT assay; type: functional, Chlorocebus aethiops
# HEK293 [2] = assay: Cytotoxicity against human HEK293 cells at 25 ug/mL after 120 hrs by MTT assay; type: functional
# HEK293 [3] = assay: Cytotoxicity against human HEK293 cells at 50 ug/mL after 48 hrs by MTT assay; type: functional
# HEK293 [4] = assay: Cytotoxicity against human HEK293 cells at 100 ug/mL after 96 hrs by MTT assay; type: functional
# Human adenovirus 5 [5] = assay: Antiviral activity against Human adenovirus 5 in HEK293 cells assessed as virus titre at 50 ug/mL after 1 hr; type: functional
# [6] = Cytotoxicity against monkey GMK cells at 5 ug/mL after 96 hrs by MTT assay; type: functional, Chlorocebus aethiops
# [7] = Cytotoxicity against monkey GMK cells at 2.5 ug/mL after 72 hrs by MTT assay; type: functional, Chlorocebus aethiops
# Human adenovirus 5 [8] = assay: Antiviral activity against Human adenovirus 5 in HEK293 cells assessed as virus titre at 100 ug/mL after 1 hr; type: functional
# HEK293 [9] = assay: Cytotoxicity against human HEK293 cells at 200 ug/mL after 96 hrs by MTT assay; type: functional
# [10] = Cytotoxicity against monkey GMK cells at 25 ug/mL after 72 hrs by MTT assay; type: functional, Chlorocebus aethiops
# HEK293 [11] = assay: Cytotoxicity against human HEK293 cells at 10 ug/mL after 120 hrs by MTT assay; type: functional
# HEK293 [12] = assay: Cytotoxicity against human HEK293 cells at 10 ug/mL after 72 hrs by MTT assay; type: functional
# HEK293 [13] = assay: Cytotoxicity against human HEK293 cells at 100 ug/mL after 48 hrs by MTT assay; type: functional
# HEK293 [14] = assay: Cytotoxicity against human HEK293 cells at 25 ug/mL after 24 hrs by MTT assay; type: functional
# HEK293 [15] = assay: Cytotoxicity against human HEK293 cells at 50 ug/mL after 96 hrs by MTT assay; type: functional
# HEK293 [16] = assay: Cytotoxicity against human HEK293 cells at 2.5 ug/mL after 96 hrs by MTT assay; type: functional
# [17] = Cytotoxicity against monkey GMK cells at 200 ug/mL after 72 hrs by MTT assay; type: functional, Chlorocebus aethiops
# [18] = Cytotoxicity against monkey GMK cells at 5 ug/mL after 48 hrs by MTT assay; type: functional, Chlorocebus aethiops
# HEK293 [19] = assay: Cytotoxicity against human HEK293 cells at 100 ug/mL after 24 hrs by MTT assay; type: functional
# [20] = Cytotoxicity against monkey GMK cells at 5 ug/mL after 72 hrs by MTT assay; type: functional, Chlorocebus aethiops
# HEK293 [21] = assay: Cytotoxicity against human HEK293 cells at 10 ug/mL after 24 hrs by MTT assay; type: functional
# [22] = Cytotoxicity against monkey GMK cells at 200 ug/mL after 96 hrs by MTT assay; type: functional, Chlorocebus aethiops
# HEK293 [23] = assay: Cytotoxicity against human HEK293 cells at 10 ug/mL after 96 hrs by MTT assay; type: functional
# HEK293 [24] = assay: Cytotoxicity against human HEK293 cells at 2.5 ug/mL after 48 hrs by MTT assay; type: functional
# HEK293 [25] = assay: Cytotoxicity against human HEK293 cells at 100 ug/mL after 72 hrs by MTT assay; type: functional
# HEK293 [26] = assay: Cytotoxicity against human HEK293 cells at 200 ug/mL after 48 hrs by MTT assay; type: functional
# HEK293 [27] = assay: Cytotoxicity against human HEK293 cells at 5 ug/mL after 72 hrs by MTT assay; type: functional
# [28] = Cytotoxicity against monkey GMK cells at 100 ug/mL after 72 hrs by MTT assay; type: functional, Chlorocebus aethiops
# Echovirus E9 [29] = assay: Antiviral activity against Human echovirus 9 in GMK cells assessed as virus titre at 100 ug/mL after 1 hr; type: functional
# [30] = Cytotoxicity against monkey GMK cells at 200 ug/mL after 24 hrs by MTT assay; type: functional, Chlorocebus aethiops
# Echovirus E9 [31] = assay: Antiviral activity against Human echovirus 9 in GMK cells assessed as virus titre at 200 ug/mL after 1 hr; type: functional
# [32] = Cytotoxicity against monkey GMK cells at 50 ug/mL after 96 hrs by MTT assay; type: functional, Chlorocebus aethiops
# [33] = Cytotoxicity against monkey GMK cells at 100 ug/mL after 120 hrs by MTT assay; type: functional, Chlorocebus aethiops
# [34] = Cytotoxicity against monkey GMK cells at 50 ug/mL after 72 hrs by MTT assay; type: functional, Chlorocebus aethiops
# [35] = Cytotoxicity against monkey GMK cells at 2.5 ug/mL after 48 hrs by MTT assay; type: functional, Chlorocebus aethiops
# Human adenovirus 5 [36] = assay: Antiviral activity against Human adenovirus 5 in HEK293 cells assessed as virus titre at 200 ug/mL after 1 hr; type: functional
# HEK293 [37] = assay: Cytotoxicity against human HEK293 cells at 10 ug/mL after 48 hrs by MTT assay; type: functional
# HEK293 [38] = assay: Cytotoxicity against human HEK293 cells at 200 ug/mL after 24 hrs by MTT assay; type: functional
# [39] = Cytotoxicity against monkey GMK cells at 25 ug/mL after 120 hrs by MTT assay; type: functional, Chlorocebus aethiops
# HEK293 [40] = assay: Cytotoxicity against human HEK293 cells at 5 ug/mL after 96 hrs by MTT assay; type: functional
# HEK293 [41] = assay: Cytotoxicity against human HEK293 cells at 5 ug/mL after 48 hrs by MTT assay; type: functional
# [42] = Cytotoxicity against monkey GMK cells at 10 ug/mL after 120 hrs by MTT assay; type: functional, Chlorocebus aethiops
# HEK293 [43] = assay: Cytotoxicity against human HEK293 cells at 50 ug/mL after 24 hrs by MTT assay; type: functional
# HEK293 [44] = assay: Cytotoxicity against human HEK293 cells at 25 ug/mL after 48 hrs by MTT assay; type: functional
# [45] = Cytotoxicity against monkey GMK cells at 10 ug/mL after 96 hrs by MTT assay; type: functional, Chlorocebus aethiops
# HEK293 [46] = assay: Cytotoxicity against human HEK293 cells at 200 ug/mL after 120 hrs by MTT assay; type: functional
# [47] = Cytotoxicity against monkey GMK cells at 5 ug/mL after 24 hrs by MTT assay; type: functional, Chlorocebus aethiops
# HEK293 [48] = assay: Cytotoxicity against human HEK293 cells at 2.5 ug/mL after 24 hrs by MTT assay; type: functional
# [49] = Cytotoxicity against monkey GMK cells at 100 ug/mL after 24 hrs by MTT assay; type: functional, Chlorocebus aethiops
# [50] = Cytotoxicity against monkey GMK cells at 100 ug/mL after 48 hrs by MTT assay; type: functional, Chlorocebus aethiops
# HEK293 [51] = assay: Cytotoxicity against human HEK293 cells at 50 ug/mL after 72 hrs by MTT assay; type: functional
# HEK293 [52] = assay: Cytotoxicity against human HEK293 cells at 5 ug/mL after 24 hrs by MTT assay; type: functional
# [53] = Cytotoxicity against monkey GMK cells at 2.5 ug/mL after 120 hrs by MTT assay; type: functional, Chlorocebus aethiops
# HEK293 [54] = assay: Cytotoxicity against human HEK293 cells at 200 ug/mL after 72 hrs by MTT assay; type: functional
# [55] = Cytotoxicity against monkey GMK cells at 50 ug/mL after 24 hrs by MTT assay; type: functional, Chlorocebus aethiops
# [56] = Cytotoxicity against monkey GMK cells at 25 ug/mL after 96 hrs by MTT assay; type: functional, Chlorocebus aethiops
# [57] = Cytotoxicity against monkey GMK cells at 50 ug/mL after 48 hrs by MTT assay; type: functional, Chlorocebus aethiops
compound,measurement,setting,value
COC(=O)CC1NN=C2N(CCN2c2cccc(Cl)c2)C1=O (centres undefined),Activity,[1],100%
same,Activity,HEK293 [2],95%
same,Activity,HEK293 [3],95%
same,Activity,HEK293 [4],50%
same,TCID50,Human adenovirus 5 [5],3.5 mL⁻¹
same,Activity,[6],100%
same,Activity,[7],100%
same,TCID50,Human adenovirus 5 [8],3.5 mL⁻¹
same,Activity,HEK293 [9],35%
same,Activity,[10],95%
same,Activity,HEK293 [11],100%
same,Activity,HEK293 [12],100%
same,Activity,HEK293 [13],50%
same,Activity,HEK293 [14],100%
same,Activity,HEK293 [15],90%
same,Activity,HEK293 [16],100%
same,Activity,[17],20%
same,Activity,[18],100%
same,Activity,HEK293 [19],98%
same,Activity,[20],100%
same,Activity,HEK293 [21],100%
same,Activity,[22],0%
same,Activity,HEK293 [23],100%
same,Activity,HEK293 [24],100%
same,Activity,HEK293 [25],55%
same,Activity,HEK293 [26],40%
same,Activity,HEK293 [27],100%
same,Activity,[28],20%
same,TCID50,Echovirus E9 [29],3 mL⁻¹
same,Activity,[30],80%
same,TCID50,Echovirus E9 [31],3.33 mL⁻¹
same,Activity,[32],90%
same,Activity,[33],0%
same,Activity,[34],95%
same,Activity,[35],100%
same,TCID50,Human adenovirus 5 [36],3.23 mL⁻¹
same,Activity,HEK293 [37],100%
same,Activity,HEK293 [38],98%
same,Activity,[39],95%
same,Activity,HEK293 [40],100%
same,Activity,HEK293 [41],100%
same,Activity,[42],100%
same,Activity,HEK293 [43],95%
same,Activity,HEK293 [44],100%
same,Activity,[45],100%
same,Activity,HEK293 [46],30%
same,Activity,[47],100%
same,Activity,HEK293 [48],100%
same,Activity,[49],80%
same,Activity,[50],50%
same,Activity,HEK293 [51],95%
same,Activity,HEK293 [52],100%
same,Activity,[53],100%
same,Activity,HEK293 [54],35%
same,Activity,[55],100%
same,Activity,[56],95%
same,Activity,[57],95%
CCOC(=O)CC1NN=C2N(CCN2c2ccc(Cl)cc2)C1=O (centres undefined),Activity,[1],100%
same,Activity,HEK293 [2],100%
same,Activity,HEK293 [3],100%
same,Activity,HEK293 [4],70%
same,TCID50,Human adenovirus 5 [5],3.5 mL⁻¹
same,Activity,[6],100%
same,Activity,[7],100%
same,TCID50,Human adenovirus 5 [8],3.5 mL⁻¹
same,Activity,HEK293 [9],25%
same,Activity,[10],100%
same,Activity,HEK293 [11],100%
same,Activity,HEK293 [12],100%
same,Activity,HEK293 [13],90%
same,Activity,HEK293 [14],100%
same,Activity,HEK293 [15],100%
same,Activity,HEK293 [16],100%
same,Activity,[17],100%
same,Activity,[18],100%
same,Activity,HEK293 [19],95%
same,Activity,[20],100%
same,Activity,HEK293 [21],100%
same,Activity,[22],95%
same,Activity,HEK293 [23],100%
same,Activity,HEK293 [24],100%
same,Activity,HEK293 [25],70%
same,Activity,HEK293 [26],30%
same,Activity,HEK293 [27],100%
same,Activity,[28],100%
same,TCID50,Echovirus E9 [29],3.67 mL⁻¹
same,Activity,[30],100%
same,TCID50,Echovirus E9 [31],3.5 mL⁻¹
same,Activity,[32],100%
same,Activity,[33],100%
same,Activity,[34],100%
same,Activity,[35],100%
same,TCID50,Human adenovirus 5 [36],3.5 mL⁻¹
same,Activity,HEK293 [37],100%
same,Activity,HEK293 [38],50%
same,Activity,[39],100%
same,Activity,HEK293 [40],100%
same,Activity,HEK293 [41],100%
same,Activity,[42],100%
same,Activity,HEK293 [43],100%
same,Activity,HEK293 [44],100%
same,Activity,[45],100%
same,Activity,HEK293 [46],20%
same,Activity,[47],100%
same,Activity,HEK293 [48],100%
same,Activity,[49],100%
same,Activity,[50],100%
same,Activity,HEK293 [51],100%
same,Activity,HEK293 [52],100%
same,Activity,[53],100%
same,Activity,HEK293 [54],25%
same,Activity,[55],100%
same,Activity,[56],100%
same,Activity,[57],100%

# — ChEMBL document CHEMBL1149623, “Identification of antibacterial and antiviral activities of novel fused 1,2,4-triazine esters” (2007)
